From US20200276107A1, “Treatment of herpes simplex symptoms on skin and mucous membrane of mammals” (priority 2017, published 2020) come the findings set out here.

The experiment deals with herpes simplex labialis. Briefly: In vivo topical treatment, test group A (four individuals). Also on record: species or system human. The conditions noted are these: common topical medication 5 to 6 times per day. The protocol:
Antiviral performance of the composition of the present invention was evaluated in vivo. The test group A consisted of four individuals suffering from herpes simplex labialis. […] As infections were untreated, the individuals were normally healing in between 7 to 10 days. The time from initiation of the symptoms to when the patients experienced relief of pain from the affected area was between 5 to 7 days. […] The time from initiation of the symptoms to time when the patients experienced relief of pain from the affected area was 3 to 5 days.
The herpes infections of test group were treated topically with a composition containing the polyamine polymer silver complex of the present invention with the following results. The composition was applied topically to the affected areas to cover the cold sores with a coating of the composition two times a day. The time from initiation of the cold sores and treatment with the composition to complete healing averaged between about 2 to 3 days. The time from the initiation of the treatment to when the patients experienced relief of pain from the affected area was about 10 to 15 minutes after the first application.

As to `Nc1nc2c(ncn2COCCO)c(=O)[nH]1` [acyclovir], the “time from initiation of the symptoms to relief of pain from the affected area” value is given as 3 to 5 days and the time to healing is 5 to 7 days.
